Measurements published in the supplement of paper PMC10627819.

Legend:
[1] = system: B. subtilis 168; test: Bliss interaction score (quartile over a dose matrix) (fitness difference); higher = more antagonism (negative = synergy)
Method in brief: (§1)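 The Bliss score was calculated by subtracting the expected fitness, the product of single-drug values, from the observed fitness. OD595 at entry into stationary phase, over the plate's robust no-drug mean and capped at 1, served as the fitness readout. Single-drug values were inferred from combination data, and scores are summarised by quartiles across technical, biological and donor/recipient replicates.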

[2] = system: S. aureus DSM 20231; test: as above
Method in brief: as §1

[3] = system: S. pneumoniae D39V; test: as above
Method in brief: as §1

[4] = system: S. aureus Newman; test: as above
Method in brief: as §1

[5] = system: B. subtilis 168; test: fitness (endpoint OD595 vs no drug) (fraction); higher = more growth
Method in brief: (§2)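 Bacterial fitness was scored as optical density at the stationary-phase transition relative to the robust mean of no-drug control wells. Scores are capped at 1. The growth data were OD595 readings every 30 min for 14 h at 37 °C, background-subtracted against the first reading, from 384-well plates inoculated at OD595 0.01 in TSB, LB Lennox or CY.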

[6] = system: S. pneumoniae D39V; test: as above
Method in brief: as §2
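Wherever Bliss interaction score (quartile over a dose matrix) is given: first quartile when negative (synergy) and third quartile when positive (antagonism).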

C[C@H]1c2cccc(O)c2C(=O)C2=C(O)[C@]3(O)C(=O)C(C(N)=O)=C(O)[C@@H](N(C)C)[C@@H]3[C@@H](O)[C@@H]21 [Doxycycline] + CN(N=O)C(=O)N[C@@H](C=O)[C@@H](O)[C@H](O)[C@H](O)CO [Streptozotocin]
Conditions | Bliss interaction score
[1] | 0.0094
[2] | 0.0373
[3] | -0.0474
[4] | 0.0413

Conditions | fitness
[5], first compound 0.02 µg/mL, partner 0.15 µg/mL | 0.917
[5], first compound 0.02 µg/mL, partner 0.3 µg/mL | 0.97
[5], first compound 0.02 µg/mL, partner 0.6 µg/mL | 0.901
[5], first compound 0.04 µg/mL, partner 0.15 µg/mL | 0.773
[5], first compound 0.04 µg/mL, partner 0.3 µg/mL | 0.789
[5], first compound 0.04 µg/mL, partner 0.6 µg/mL | 0.786
[5], first compound 0.08 µg/mL, partner 0.3 µg/mL | 0.538
[5], first compound 0.08 µg/mL, partner 0.6 µg/mL | 0.531
[6], first compound 0.0155 µg/mL, partner 1.2 µg/mL | 0.919
[6], first compound 0.0155 µg/mL, partner 2.4 µg/mL | 0.896
[6], first compound 0.0155 µg/mL, partner 4.8 µg/mL | 0.914
[6], first compound 0.031 µg/mL, partner 1.2 µg/mL | 0.837
[6], first compound 0.031 µg/mL, partner 2.4 µg/mL | 0.847
[6], first compound 0.031 µg/mL, partner 4.8 µg/mL | 0.822
[6], first compound 0.062 µg/mL, partner 1.2 µg/mL | 0.754
[6], first compound 0.062 µg/mL, partner 2.4 µg/mL | 0.761
[6], first compound 0.062 µg/mL, partner 4.8 µg/mL | 0.71

fitness, [6], one replicate
Conditions | partner 1.2 µg/mL | partner 2.4 µg/mL | partner 4.8 µg/mL
first compound 0.003875 µg/mL | 0.989 | 0.971 | 0.984
first compound 0.00775 µg/mL | 0.926 | 0.913 | 0.933

C[C@H]1c2cccc(O)c2C(=O)C2=C(O)[C@]3(O)C(=O)C(C(N)=O)=C(O)[C@@H](N(C)C)[C@@H]3[C@@H](O)[C@@H]21 [Doxycycline] + CC(=O)NC[C@H]1CN(c2ccc(N3CCOCC3)c(F)c2)C(=O)O1 [Linezolid]
Conditions | Bliss interaction score
[1] | -0.137
[2] | -0.0188
[3] | -0.197
[4] | -0.0282

fitness, one replicate
Conditions | first compound 0.003875 µg/mL | first compound 0.00775 µg/mL | first compound 0.02 µg/mL | first compound 0.031 µg/mL | first compound 0.04 µg/mL | first compound 0.062 µg/mL | first compound 0.08 µg/mL
[5], partner 0.0625 µg/mL | – | – | 0.775 | – | 0.51 | – | 0.0619
[6], partner 0.2 µg/mL | 0.796 | 0.774 | – | 0.668 | – | 0.465 | –
[6], partner 0.4 µg/mL | 0.7 | 0.65 | – | 0.4 | – | 0.241 | –
[6], partner 0.8 µg/mL | 0.353 | 0.37 | – | 0.24 | – | 0.116 | –

Conditions | fitness
[5], first compound 0.02 µg/mL, partner 0.5 µg/mL | 0.0524
[5], first compound 0.04 µg/mL, partner 0.5 µg/mL | 0.0497
[5], first compound 0.08 µg/mL, partner 0.25 µg/mL | 0.0313
[5], first compound 0.08 µg/mL, partner 0.5 µg/mL | 0.0418
[6], first compound 0.0155 µg/mL, partner 0.105 µg/mL | 0.702
[6], first compound 0.0155 µg/mL, partner 0.2 µg/mL | 0.776
[6], first compound 0.0155 µg/mL, partner 0.21 µg/mL | 0.595
[6], first compound 0.0155 µg/mL, partner 0.4 µg/mL | 0.575
[6], first compound 0.0155 µg/mL, partner 0.42 µg/mL | 0.406
[6], first compound 0.0155 µg/mL, partner 0.8 µg/mL | 0.325
[6], first compound 0.031 µg/mL, partner 0.105 µg/mL | 0.694
[6], first compound 0.031 µg/mL, partner 0.21 µg/mL | 0.602
[6], first compound 0.031 µg/mL, partner 0.42 µg/mL | 0.297
[6], first compound 0.062 µg/mL, partner 0.105 µg/mL | 0.606
[6], first compound 0.062 µg/mL, partner 0.21 µg/mL | 0.477
[6], first compound 0.062 µg/mL, partner 0.42 µg/mL | 0.207

C[C@H]1c2cccc(O)c2C(=O)C2=C(O)[C@]3(O)C(=O)C(C(N)=O)=C(O)[C@@H](N(C)C)[C@@H]3[C@@H](O)[C@@H]21 [Doxycycline] + CN(C)c1cc(NC(=O)CNC(C)(C)C)c(O)c2c1C[C@H]1C[C@H]3[C@H](N(C)C)C(O)=C(C(N)=O)C(=O)[C@@]3(O)C(O)=C1C2=O [Tigecycline]
Conditions | Bliss interaction score
[1] | 0.0765
[2] | -0.104
[3] | 0.0303
[4] | -0.0649

Conditions | fitness
[5], first compound 0.02 µg/mL, partner 0.039 µg/mL | 0.94
[5], first compound 0.02 µg/mL, partner 0.078 µg/mL | 0.818
[5], first compound 0.02 µg/mL, partner 0.156 µg/mL | 0.85
[5], first compound 0.04 µg/mL, partner 0.039 µg/mL | 0.824
[5], first compound 0.04 µg/mL, partner 0.078 µg/mL | 0.773
[5], first compound 0.04 µg/mL, partner 0.156 µg/mL | 0.792
[5], first compound 0.08 µg/mL, partner 0.078 µg/mL | 0.619
[5], first compound 0.08 µg/mL, partner 0.156 µg/mL | 0.635
[6], first compound 0.0155 µg/mL, partner 0.65 µg/mL | 0.969
[6], first compound 0.0155 µg/mL, partner 1.3 µg/mL | 0.922
[6], first compound 0.0155 µg/mL, partner 2.6 µg/mL | 0.903
[6], first compound 0.031 µg/mL, partner 0.65 µg/mL | 0.902
[6], first compound 0.031 µg/mL, partner 1.3 µg/mL | 0.831
[6], first compound 0.031 µg/mL, partner 2.6 µg/mL | 0.796
[6], first compound 0.062 µg/mL, partner 0.65 µg/mL | 0.885
[6], first compound 0.062 µg/mL, partner 1.3 µg/mL | 0.773
[6], first compound 0.062 µg/mL, partner 2.6 µg/mL | 0.732

fitness, one replicate
Conditions | partner 0.125 µg/mL | partner 0.25 µg/mL | partner 0.5 µg/mL | partner 0.65 µg/mL | partner 1.3 µg/mL | partner 2.6 µg/mL
[5], first compound 0.02 µg/mL | 0.99 | 0.873 | 0.962 | – | – | –
[5], first compound 0.04 µg/mL | 0.994 | 0.849 | 0.895 | – | – | –
[5], first compound 0.08 µg/mL | 0.761 | 0.611 | 0.697 | – | – | –
[6], first compound 0.003875 µg/mL | – | – | – | ≥ 1 | ≥ 1 | ≥ 1
[6], first compound 0.00775 µg/mL | – | – | – | 1 | 0.963 | 0.954

C[C@H]1c2cccc(O)c2C(=O)C2=C(O)[C@]3(O)C(=O)C(C(N)=O)=C(O)[C@@H](N(C)C)[C@@H]3[C@@H](O)[C@@H]21 [Doxycycline] + CCC[C@@H]1C[C@@H](C(=O)N[C@@H]([C@H]2O[C@H](SC)[C@H](O)[C@@H](O)[C@H]2O)[C@@H](C)O)N(C)C1 [Lincomycin]
Conditions | Bliss interaction score
[1] | 0.0648
[2] | -0.228
[3] | -0.13
[4] | -0.0975

fitness
Conditions | partner 0.1 µg/mL | partner 0.2 µg/mL | partner 0.215 µg/mL | partner 0.4 µg/mL | partner 0.43 µg/mL | partner 0.8 µg/mL | partner 0.86 µg/mL
[5], first compound 0.02 µg/mL | 0.918 | 0.888 | – | 0.885 | – | – | –
[5], first compound 0.04 µg/mL | 0.764 | 0.72 | – | 0.717 | – | – | –
[6], first compound 0.0155 µg/mL | – | 0.76 | 0.726 | 0.657 | 0.62 | 0.213 | 0.344
[6], first compound 0.031 µg/mL | – | – | 0.716 | – | 0.625 | – | 0.298
[6], first compound 0.062 µg/mL | – | – | 0.674 | – | 0.481 | – | 0.221

fitness, one replicate
Conditions | first compound 0.003875 µg/mL | first compound 0.00775 µg/mL | first compound 0.02 µg/mL | first compound 0.031 µg/mL | first compound 0.04 µg/mL | first compound 0.062 µg/mL | first compound 0.08 µg/mL
[5], partner 0.8 µg/mL | – | – | 0.881 | – | 0.693 | – | 0.209
[5], partner 1.6 µg/mL | – | – | 0.792 | – | 0.549 | – | 0.153
[6], partner 0.2 µg/mL | 0.822 | 0.77 | – | 0.636 | – | 0.374 | –
[6], partner 0.4 µg/mL | 0.748 | 0.711 | – | 0.398 | – | 0.146 | –
[6], partner 0.8 µg/mL | 0.231 | 0.303 | – | 0.163 | – | 0.0672 | –
